# Legend:
# Assay in all cases: NCI 60 human tumor cell line screen (SRB)
# Format in all cases: cell-based
# SNB-19 = SNB-19 (CNS Cancer); 48 h
# Procedure, shortened: (§1)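 Cells plated 24 h before dosing, with time-zero plates TCA-fixed at drug addition; five concentrations (10-fold or ½-log dilutions) added and incubated 48 h at 37 °C, 5% CO2. Adherent cells fixed with 10% TCA, stained with 0.4% SRB, absorbance read at 515 nm; GI50, TGI and LC50 derived from percentage growth versus time zero and control.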
# HOP-92 = HOP-92 (Non-Small Cell Lung Cancer); 48 h
# Procedure, shortened: as §1
# NCI-H226 = NCI-H226 (Non-Small Cell Lung Cancer); 48 h
# Procedure, shortened: as §1
# M14 = M14 (Melanoma); 48 h
# Procedure, shortened: as §1
# MDA-MB-231/ATCC = MDA-MB-231/ATCC (Breast Cancer); 48 h
# Procedure, shortened: as §1
# OVCAR-3 = OVCAR-3 (Ovarian Cancer); 48 h
# Procedure, shortened: as §1
# OVCAR-5 = OVCAR-5 (Ovarian Cancer); 48 h
# Procedure, shortened: as §1
# HS 578T = HS 578T (Breast Cancer); 48 h
# Procedure, shortened: as §1
# TK-10 = TK-10 (Renal Cancer); 48 h
# Procedure, shortened: as §1
# HL-60(TB) = HL-60(TB) (Leukemia); 48 h
# Procedure, shortened: as §1
# MDA-MB-468 = MDA-MB-468 (Breast Cancer); 48 h
# Procedure, shortened: as §1
# HT29 = HT29 (Colon Cancer); 48 h
# Procedure, shortened: as §1
Structure (SMILES),Log10GI50 (SNB-19),Log10LC50 (SNB-19),Log10TGI50 (SNB-19),Log10GI50 (HOP-92),Log10LC50 (HOP-92),Log10TGI50 (HOP-92),Log10GI50 (NCI-H226),Log10TGI50 (NCI-H226),Log10GI50 (M14),Log10LC50 (M14),Log10TGI50 (M14),Log10GI50 (MDA-MB-231/ATCC),Log10LC50 (MDA-MB-231/ATCC),Log10TGI50 (MDA-MB-231/ATCC),Log10GI50 (OVCAR-3),Log10LC50 (OVCAR-3),Log10TGI50 (OVCAR-3),Log10GI50 (OVCAR-5),Log10LC50 (OVCAR-5),Log10TGI50 (OVCAR-5),other results
"C[C@]1(C(=O)[C@H](Cc2ccccc2)NC(=O)[C@H](COC(F)F)NC(=O)[C@H](COC(F)F)NC(=O)CN2CCOCC2)CO1 [Example 26, (S)-N-{(S)-1-[(S)-1-Benzyl-2-((R)-2-methyl-oxiranyl)-2-oxo-ethylcarbamoyl]-2-difluoromethoxyethyl}-3-difluoromethoxy-2-(2-morpholin-4-yl-acetylamino)-propio-namide]",−7.23,>−4.00,>−4.00,−7.65,−6.35,−7.16,−7.77,−7.43,−7.48,>−4.00,−6.71,−7.52,−4.21,−6.80,−7.66,−6.97,−7.33,−7.36,>−4.00,−6.44,Log10LC50 (NCI-H226): −7.10; Log10GI50 (HS 578T): −7.54; Log10LC50 (HS 578T): >−4.00; Log10TGI50 (HS 578T): −6.24; Log10GI50 (TK-10): −7.49; Log10LC50 (TK-10): >−4.00; Log10TGI50 (TK-10): −6.07; Log10GI50 (HL-60(TB)): −7.45; Log10LC50 (HL-60(TB)): >−4.00; Log10TGI50 (HL-60(TB)): −6.35; Log10GI50 (MDA-MB-468): −7.54; Log10LC50 (MDA-MB-468): >−4.00; Log10TGI50 (MDA-MB-468): −6.96; Log10GI50 (HT29): −7.45; Log10LC50 (HT29): >−4.00; Log10TGI50 (HT29): −5.84
C[C@]1(C(=O)[C@H](Cc2ccccc2)NC(=O)[C@H](Cc2ccccc2)NC(=O)[C@H](COC(F)F)NC(=O)CN2CCOCC2)CO1 [Example 29],−6.51,>−4.00,>−4.00,−7.18,−6.03,−6.55,−7.64,−7.24,−7.21,>−4.00,−5.85,−7.04,−4.44,−6.27,−7.35,−5.66,−6.71,−6.65,>−4.00,−5.58,Log10LC50 (NCI-H226): −6.51; Log10GI50 (HS 578T): −7.07; Log10LC50 (HS 578T): >−4.00; Log10TGI50 (HS 578T): >−4.00; Log10GI50 (TK-10): −6.55; Log10LC50 (TK-10): >−4.00; Log10TGI50 (TK-10): −5.10; Log10GI50 (MDA-MB-468): −6.67; Log10LC50 (MDA-MB-468): >−4.00; Log10TGI50 (MDA-MB-468): −6.10; Log10GI50 (HT29): −7.31; Log10LC50 (HT29): >−4.00; Log10TGI50 (HT29): −4.77
"Cc1ncc(C(=O)N[C@@H](COC(F)F)C(=O)N[C@@H](COC(F)F)C(=O)N[C@@H](Cc2ccccc2)C(=O)[C@@]2(C)CO2)s1 [Example 1, 2-methyl-thiazole-5-carboxylic acid ((S)-1-{(S)-1-[(S)-1-benzyl-2-((R)-2-methyloxiranyl)-2-oxo-ethylcarbamoyl]-2-difluoromethoxyethylcarbamoyl}-2-difluoromethoxyethyl)-amide]",−6.49,>−4.00,>−4.00,−6.23,−4.39,−5.40,−7.44,−6.84,−6.86,−4.35,−6.24,−6.66,−4.73,−6.01,−7.46,−6.30,−6.90,−6.18,−4.17,−5.30,Log10GI50 (HS 578T): −7.33; Log10LC50 (HS 578T): >−4.00; Log10TGI50 (HS 578T): −5.44; Log10GI50 (TK-10): −6.71; Log10TGI50 (TK-10): −6.06; Log10GI50 (HL-60(TB)): −6.56; Log10LC50 (HL-60(TB)): >−4.00; Log10TGI50 (HL-60(TB)): >−4.00; Log10GI50 (MDA-MB-468): −6.75; Log10TGI50 (MDA-MB-468): −6.32; Log10GI50 (HT29): −7.29; Log10LC50 (HT29): −4.32; Log10TGI50 (HT29): −6.22
"CC(C)C[C@H](NC(=O)[C@H](Cc1ccccc1)NC(=O)[C@H](COC(F)F)NC(=O)CN1CCOCC1)C(=O)[C@@]1(C)CO1 [Example 25, (2S)-2-[[(2S)-3-(difluoromethoxy)-2-[(2-morpholinoacetyl)amino]propanoyl]amino]-N-[(1S)-3-methyl-1-[(2R)-2-methyloxirane-2-carbonyl]butyl]-3-phenyl-propanamide]",−7.23,>−4.00,>−4.00,−7.65,−6.35,−7.16,−7.77,−7.43,−7.48,>−4.00,−6.71,−7.52,−4.21,−6.80,−7.66,−6.97,−7.33,−7.36,>−4.00,−6.44,Log10LC50 (NCI-H226): −7.10; Log10GI50 (HS 578T): −7.54; Log10LC50 (HS 578T): >−4.00; Log10TGI50 (HS 578T): −6.24; Log10GI50 (TK-10): −7.49; Log10LC50 (TK-10): >−4.00; Log10TGI50 (TK-10): −6.07; Log10GI50 (HL-60(TB)): −7.45; Log10LC50 (HL-60(TB)): >−4.00; Log10TGI50 (HL-60(TB)): −6.35; Log10GI50 (MDA-MB-468): −7.54; Log10LC50 (MDA-MB-468): >−4.00; Log10TGI50 (MDA-MB-468): −6.96; Log10GI50 (HT29): −7.45; Log10LC50 (HT29): >−4.00; Log10TGI50 (HT29): −5.84

# Source: US9441012B2, “Fluorinated epoxyketone-based compounds and uses thereof as proteasome inhibitors” (FLUORINOV PHARMA INC., priority 2012, dated 2016)
